Measured values: article PMC7465344 (Pharmaceuticals, 2020)
Values joined by “and” are separate entries in the source; they are usually repeats but may differ in a detail not shown here. Identical values can stand only once. Like-named read-outs stand apart in the source and are kept apart here.

How the values were obtained:
hA2A AR [1] = target: T1, hA2A AR (Homo sapiens, UniProt P29274); assay: Cyclic AMP assay in CHO cells expressing hA2A AR (modulation of basal cAMP); conditions: for Pharmacological Behavior / Intrinsic Activity: cyclic AMP assay, hA2A CHO cells; for Intrinsic Activity: mean ± SEM
Procedure: CHO cells transfected with hAR subtypes were washed with phosphate-buffered saline, detached with trypsin, and centrifuged for 10 min at 200× g. […] At the end of the experiments, plates were read with the Perkin Elmer EnSight Multimode Plate Reader.
Ki and IC50 values were calculated by the non-linear regression analysis using the equation for a sigmoid concentration-response curve (Graph-PAD Prism, San Diego, CA, USA).

hA2A AR [2] = target: T1, hA2A AR; assay: Competition binding of [3H]ZM241385 to hA2A AR in CHO cell membranes
Procedure: (§1) For membrane preparation, the cells were washed with phosphate-buffered saline and scraped off T75 flasks in an ice-cold hypotonic buffer (5 mMTris-HCl, 1 mM EDTA, pH 7.4). The cell suspensions were homogenized with a Polytron, centrifuged for 30 min at 40,000× g at 4 °C and the resulting membrane pellets were used for competition binding experiments [44].
(§2) Non-specific binding was defined as binding in the presence of 1 μM DPCPX and was always <10% of the total binding [44]. […] Non-specific binding was defined as binding in the presence of 1 μM ABMECA and was always < 10% of the total binding [46]. Bound and free radioactivity were separated by filtering the assay mixture through Whatman GF/B glass fiber filters using a Brandel cell harvester (Brandel Instruments, Unterföhring, Germany).
(§3) The protein concentration was determined according to a Bio-Rad method with bovine albumin as a standard reference. […] Ki and IC50 values were calculated by the non-linear regression analysis using the equation for a sigmoid concentration-response curve (Graph-PAD Prism, San Diego, CA, USA).

hA2B AR = target: T2, hA2B AR (Homo sapiens, UniProt P29275); assay: Inhibition of NECA stimulated adenylyl cyclase activity (cAMP assay) in CHO cells expressing hA2B receptor; type: cell-based; conditions: for inhibition at 10 µM: CHO, at 10 μM of tested compound, cAMP assay, read-out: hA2BAR percentage of inhibition (I%); for IC50: NECA stimulated cAMP, hA2B CHO cells, read-out: hA2BAR IC50 (potency in cAMP assay)
T2 construct: expressed in transfected cells; host or cells: CHO cells
T2 sequence (P29275 1-332): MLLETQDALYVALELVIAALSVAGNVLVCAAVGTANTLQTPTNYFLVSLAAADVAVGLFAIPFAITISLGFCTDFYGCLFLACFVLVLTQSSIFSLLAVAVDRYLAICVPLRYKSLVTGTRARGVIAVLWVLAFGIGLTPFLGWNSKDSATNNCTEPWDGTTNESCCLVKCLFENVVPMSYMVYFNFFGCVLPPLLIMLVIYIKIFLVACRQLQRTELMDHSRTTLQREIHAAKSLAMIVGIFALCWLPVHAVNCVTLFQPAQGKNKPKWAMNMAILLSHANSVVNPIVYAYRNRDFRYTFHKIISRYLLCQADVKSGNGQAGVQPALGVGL
From the text: At the end of the experiments, plates were read with the Perkin Elmer EnSight Multimode Plate Reader.

hA3 AR = target: T3, hA3 AR (Homo sapiens, UniProt P0DMS8); assay: Competition binding of [125I]AB-MECA to hA3 AR in CHO cell membranes; conditions: for inhibition at 10 µM: read-out: hA3AR percentage of inhibition (I%)
T3 sequence (P0DMS8 1-318): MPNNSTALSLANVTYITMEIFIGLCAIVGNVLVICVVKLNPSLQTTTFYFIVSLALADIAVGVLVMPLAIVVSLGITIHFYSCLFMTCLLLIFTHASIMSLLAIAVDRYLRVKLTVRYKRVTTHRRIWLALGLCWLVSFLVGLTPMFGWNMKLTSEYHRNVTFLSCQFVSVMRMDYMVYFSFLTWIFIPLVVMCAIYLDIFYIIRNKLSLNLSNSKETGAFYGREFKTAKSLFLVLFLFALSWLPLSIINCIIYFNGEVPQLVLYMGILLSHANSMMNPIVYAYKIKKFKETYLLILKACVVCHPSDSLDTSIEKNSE
Procedure: as §1, §2, §3

hA1 AR = target: T4, hA1 AR (Homo sapiens, UniProt P30542); assay: Competition binding of [3H]DPCPX to hA1 AR in CHO cell membranes; conditions: for hA1AR Ki: displacement of [3H]DPCPX, CHO cells, mean ± SEM, n = 3–6; for inhibition at 10 µM: read-out: hA1AR percentage of inhibition (I%)
T4 sequence (P30542 1-326): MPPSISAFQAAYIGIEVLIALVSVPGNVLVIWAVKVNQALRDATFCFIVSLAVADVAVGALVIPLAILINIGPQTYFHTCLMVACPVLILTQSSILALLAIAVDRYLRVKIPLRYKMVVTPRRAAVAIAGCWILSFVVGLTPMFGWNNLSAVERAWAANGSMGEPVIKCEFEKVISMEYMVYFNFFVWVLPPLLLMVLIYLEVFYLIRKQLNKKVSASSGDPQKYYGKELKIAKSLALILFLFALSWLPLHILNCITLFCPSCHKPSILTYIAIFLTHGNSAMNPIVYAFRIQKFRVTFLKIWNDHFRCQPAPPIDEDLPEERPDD
Procedure: as §1, §2, §3

T1 sequence (P29274 whole entry): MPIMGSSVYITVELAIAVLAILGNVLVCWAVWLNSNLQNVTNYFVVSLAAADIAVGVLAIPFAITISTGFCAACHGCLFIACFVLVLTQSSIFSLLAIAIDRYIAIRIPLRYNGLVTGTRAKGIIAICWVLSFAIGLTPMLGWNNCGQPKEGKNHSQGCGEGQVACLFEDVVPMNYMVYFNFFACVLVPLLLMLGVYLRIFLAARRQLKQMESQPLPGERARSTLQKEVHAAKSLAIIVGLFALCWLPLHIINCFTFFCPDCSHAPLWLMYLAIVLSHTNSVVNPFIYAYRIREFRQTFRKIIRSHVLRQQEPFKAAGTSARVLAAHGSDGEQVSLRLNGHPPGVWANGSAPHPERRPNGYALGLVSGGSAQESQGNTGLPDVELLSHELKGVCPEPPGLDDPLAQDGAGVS

Nc1nc(NCC2CCN(Cc3ccccc3)CC2)nc2sc(-c3ccco3)nc12 [compound 19, N^5-((1-Benzylpiperidin-4-yl)methyl)-2-(furan-2-yl)thiazolo[5,4-d]pyrimidine-5,7-diamine]
IC50 (hA2A AR [1]): 14.8 ± 1.4 nM | Pharmacological Behavior (hA2A AR [1]): Inverse agonist | Intrinsic Activity (hA2A AR [1]): −64 ± 4 | Ki (hA2A AR [2]): 15.2 ± 1.7 nM | inhibition at 10 µM (hA2B AR): 18% | IC50 (hA2B AR): > 10000 nM | Ki (hA3 AR): > 10000 nM | inhibition at 10 µM (hA3 AR): 35% | Ki (hA1 AR): 365 ± 29 nM

Nc1nc(NCCN2CCC(Cc3ccccc3)CC2)nc2sc(-c3ccco3)nc12 [compound 10, N^5-(2-(4-Benzylpiperidin-1-yl)ethyl)-2-(furan-2-yl)thiazolo[5,4-d]pyrimidine-5,7-diamine]
Ki (hA2A AR [2]): 187 ± 16 nM | inhibition at 10 µM (hA2B AR): 22% | IC50 (hA2B AR): > 10000 nM | melting point: 155 to 157 °C | Ki (hA3 AR): > 10000 nM | inhibition at 10 µM (hA3 AR): 22% | Ki (hA1 AR): 725 ± 67 nM

Nc1nc(N2CCN(CCc3ccccc3)CC2)nc2sc(-c3ccco3)nc12 [compound 4, 2-(Furan-2-yl)-5-(4-phenethylpiperazin-1-yl)thiazolo[5,4-d]pyrimidin-7-amine]
Ki (hA2A AR [2]): 237 ± 17 nM | inhibition at 10 µM (hA2B AR): 11% | IC50 (hA2B AR): > 10000 nM | melting point: 203 to 204 °C | Ki (hA3 AR): 197 ± 16 nM | Ki (hA1 AR): 1210 ± 114 nM

Nc1nc(NCCc2ccc(O)cc2)nc2nc(-c3ccco3)nn12 [ZM 241385, reference compound]
Ki (hA3 AR; read-out: hA3AR Ki, displacement of [125I]AB-MECA, CHO cells, mean ± SEM, n = 3–6): 672 ± 51 nM

COCCOc1ccc(N2CCN(CCNc3nc(N)c4nc(-c5ccco5)sc4n3)CC2)cc1 [compound 14, 2-(Furan-2-yl)-N^5-(2-(4-(4-(2-methoxyethoxy)phenyl)piperazin-1-yl)ethyl)thiazolo[5,4-d]pyrimidine-5,7-diamine]
IC50 (hA2A AR [1]): 15.2 ± 1.3 nM | Pharmacological Behavior (hA2A AR [1]): Inverse agonist | Intrinsic Activity (hA2A AR [1]): −51 ± 5 | Ki (hA2A AR [2]): 18.3 ± 1.9 nM | inhibition at 10 µM (hA2B AR): 17% | IC50 (hA2B AR): > 10000 nM | Ki (hA3 AR): 1490 ± 126 nM | Ki (hA1 AR): 452 ± 38 nM

COCCN1CCC(CNc2nc(N)c3nc(-c4ccco4)sc3n2)CC1 [compound 18, 2-(Furan-2-yl)-N^5-((1-(2-methoxyethyl)piperidin-4-yl)methyl)thiazolo[5,4-d]pyrimidine-5,7-diamine]
Ki (hA2A AR [2]): 802 ± 73 nM | inhibition at 10 µM (hA2B AR): 11% | IC50 (hA2B AR): > 10000 nM | Ki (hA3 AR): > 10000 nM | inhibition at 10 µM (hA3 AR): 28% | Ki (hA1 AR): 524 ± 41 nM

Nc1nc(NCCN2CCN(Cc3ccccc3)CC2)nc2sc(-c3ccco3)nc12 [compound 12, N^5-(2-(4-Benzylpiperazin-1-yl)ethyl)-2-(furan-2-yl)thiazolo[5,4-d]pyrimidine-5,7-diamine]
Ki (hA2A AR [2]): 92 ± 8 nM | inhibition at 10 µM (hA2B AR): 26% | IC50 (hA2B AR): > 10000 nM | melting point: 133 to 135 °C | Ki (hA3 AR): > 10000 nM | inhibition at 10 µM (hA3 AR): 17% | Ki (hA1 AR): 798 ± 72 nM

Nc1nc(N2CCN(CCN3CCCC3)CC2)nc2sc(-c3ccco3)nc12 [compound 8, 2-(Furan-2-yl)-5-(4-(2-(pyrrolidin-1-yl)ethyl)piperazin-1-yl)thiazolo[5,4-d]pyrimidin-7-amine]
inhibition at 10 µM (hA2B AR): 19% | IC50 (hA2B AR): > 10000 nM | Ki (hA3 AR): > 10000 nM | inhibition at 10 µM (hA3 AR): 25% | Ki (hA1 AR): 638 ± 56 nM

Nc1nc(NCCN2CCN(CCc3ccccc3)CC2)nc2sc(-c3ccco3)nc12 [compound 13, 2-(Furan-2-yl)-N^5-(2-(4-phenethylpiperazin-1-yl)ethyl)thiazolo[5,4-d]pyrimidine-5,7-diamine]
Ki (hA2A AR [2]): 37 ± 3 nM | inhibition at 10 µM (hA2B AR): 29% | IC50 (hA2B AR): > 10000 nM | Ki (hA3 AR): > 10000 nM | inhibition at 10 µM (hA3 AR): 33% | Ki (hA1 AR): 522 ± 47 nM

Nc1nc(N2CCC(Cc3ccccc3)CC2)nc2sc(-c3ccco3)nc12 [compound 1, 5-(4-Benzylpiperidin-1-yl)-2-(furan-2yl)thiazolo[5,4-d]pyrimidin-7-amine]
Ki (hA2A AR [2]): 594 ± 48 nM | inhibition at 10 µM (hA2B AR): 21% | IC50 (hA2B AR): > 10000 nM | melting point: 197 to 199 °C | Ki (hA3 AR): > 10000 nM | inhibition at 10 µM (hA3 AR): 8% | Ki (hA1 AR): 586 ± 37 nM

Nc1nc(N2CCN(c3ccccc3)CC2)nc2sc(-c3ccco3)nc12 [compound 2, 2-(Furan-2-yl)-5-(4-phenylpiperazin-1-yl)thiazolo[5,4-d]pyrimidin-7-amine]
inhibition at 10 µM (hA2B AR): 15% | IC50 (hA2B AR): > 10000 nM | Ki (hA3 AR): > 10000 nM | inhibition at 10 µM (hA3 AR): 18% | Ki (hA1 AR): 296 ± 22 nM

Nc1nc(NCCN2CCN(c3ccccc3)CC2)nc2sc(-c3ccco3)nc12 [compound 11, 2-(Furan-2-yl)-N^5-(2-(4-phenylpiperazin-1-yl)ethyl)thiazolo[5,4-d]pyrimidine-5,7-diamine]
IC50 (hA2A AR [1]): 7.42 ± 0.68 nM | Pharmacological Behavior (hA2A AR [1]): Inverse agonist | Intrinsic Activity (hA2A AR [1]): −52 ± 4 | Ki (hA2A AR [2]; read-out: hA2AAR Ki, displacement of [3H]ZM241385, CHO cells, mean ± SEM, n = 3–6): 8.6 nM and 8.62 nM | inhibition at 10 µM (hA2B AR): 13% | IC50 (hA2B AR): > 10000 nM | Ki (hA3 AR): > 10000 nM | inhibition at 10 µM (hA3 AR): 15% | Ki (hA1 AR): 102 ± 9 nM | hA1AR Ki (hA1 AR): good affinities

CCOC(=O)c1ccc(N2CCN(CCNc3nc(N)c4nc(-c5ccco5)sc4n3)CC2)cc1 [compound 16, Ethyl 4-(4-(2-((7-amino-2-(furan-2-yl)thiazolo[5,4-d]pyrimidin-5-yl)amino)ethyl)piperazin-1-yl) benzoate]
Ki (hA2A AR [2]): 264 ± 24 nM | inhibition at 10 µM (hA2B AR): 26% | IC50 (hA2B AR): > 10000 nM | Ki (hA3 AR): > 10000 nM | inhibition at 10 µM (hA3 AR): 34% | Ki (hA1 AR): > 10000 nM | inhibition at 10 µM (hA1 AR): 31%

CCOC(=O)c1ccc(CNc2nc(N)c3nc(-c4ccco4)sc3n2)cc1 [compound 17, Ethyl 4-(((7-amino-2-(furan-2-yl)thiazolo[5,4-d]pyrimidin-5-yl)amino)methyl)benzoate]
Ki (hA2A AR [2]): > 10000 nM | inhibition at 10 µM (hA2A AR [2]; read-out: hA2AAR percentage of inhibition (I%)): 33% | inhibition at 10 µM (hA2B AR): 17% | IC50 (hA2B AR): > 10000 nM | Ki (hA3 AR): > 10000 nM | inhibition at 10 µM (hA3 AR): 28% | Ki (hA1 AR): > 10000 nM | inhibition at 10 µM (hA1 AR): 29%

Nc1nc(NCCN2CCN(C(=O)c3ccco3)CC2)nc2sc(-c3ccco3)nc12 [compound 15, (4-(2-((7-Amino-2-(furan-2-yl)thiazolo[5,4-d]pyrimidin-5-yl)amino)ethyl)piperazin-1-yl)(furan-2-yl)methanone]
IC50 (hA2A AR [1]): 9.42 ± 0.87 nM | Pharmacological Behavior (hA2A AR [1]): Inverse agonist | Intrinsic Activity (hA2A AR [1]): −67 ± 5 | Ki (hA2A AR [2]): 10.8 ± 1 nM | inhibition at 10 µM (hA2B AR): 16% | IC50 (hA2B AR): > 10000 nM | Ki (hA3 AR): > 10000 nM | inhibition at 10 µM (hA3 AR): 23% | Ki (hA1 AR): 436 ± 36 nM

COc1ccc(CN2CCC(CNc3nc(N)c4nc(-c5ccco5)sc4n3)CC2)cc1 [compound 20, 2-(Furan-2-yl)-N^5-((1-(4-methoxybenzyl)piperidin-4-yl)methyl)thiazolo[5,4-d]pyrimidine-5,7-diamine]
Ki (hA2A AR [2]): 88 ± 9 nM | inhibition at 10 µM (hA2B AR): 24% | IC50 (hA2B AR): > 10000 nM | melting point: 182 to 183 °C | Ki (hA3 AR): > 10000 nM | inhibition at 10 µM (hA3 AR): 29% | Ki (hA1 AR): 152 ± 11 nM | hA1AR Ki (hA1 AR): good affinities

COCCOc1ccc(N2CCN(c3nc(N)c4nc(-c5ccco5)sc4n3)CC2)cc1 [compound 5, 2-(Furan-2-yl)-5-(4-(4-(2-methoxyethoxy)phenyl)piperazin-1-yl)thiazolo[5,4-d]pyrimidin-7-amine]
Ki (hA2A AR [2]): 326 ± 27 nM | inhibition at 10 µM (hA2B AR): 7% | IC50 (hA2B AR): > 10000 nM | Ki (hA3 AR): 127 ± 15 nM | Ki (hA1 AR): 2350 ± 213 nM

Nc1nc(NCC2CCN(CCc3ccccc3)CC2)nc2sc(-c3ccco3)nc12 [compound 21, 2-(Furan-2-yl)-N^5-((1-phenethylpiperidin-4-yl)methyl)thiazolo[5,4-d]pyrimidine-5,7-diamine]
Ki (hA2A AR [2]): 483 ± 34 nM | inhibition at 10 µM (hA2B AR): 27% | IC50 (hA2B AR): > 10000 nM | Ki (hA3 AR): > 10000 nM | inhibition at 10 µM (hA3 AR): 21% | Ki (hA1 AR): 247 ± 18 nM
